Experiments:
Cyp20-3 [1] = biological target: T1, Cyp20-3 (Arabidopsis thaliana, UniProt P34791, C248S); assay: ITC (single-site fit, poor fit noted); type: binding
T1 construct: recombinant Cyp20-3 C171S variant, His6-tag not cleaved

Cyp20-3 [2] = biological target: T2, Cyp20-3 (Arabidopsis thaliana, UniProt P34791); assay: ITC (single-site fit, poor fit noted); intrinsic fluorescence quenching; PPIase activity; type: binding
T2 construct: recombinant Cyp20-3 WT, His6-tag not cleaved

Cyp20-3 [3] = biological target: T3, Cyp20-3 (Arabidopsis thaliana, UniProt P34791, C206S); assay: PPIase activity assay (chymotrypsin-coupled), […] 12-OPDA; type: biochemical
T3 construct: recombinant Cyp20-3 C129S variant, His6-tag not cleaved
T3 sequence (P34791 78-260 C206S): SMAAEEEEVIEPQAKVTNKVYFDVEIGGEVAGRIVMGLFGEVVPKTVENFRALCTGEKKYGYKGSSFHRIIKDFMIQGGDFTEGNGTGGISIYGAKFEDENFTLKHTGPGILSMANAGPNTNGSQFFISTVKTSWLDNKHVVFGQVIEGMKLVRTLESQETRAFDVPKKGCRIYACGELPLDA

T2 sequence (P34791 78-260): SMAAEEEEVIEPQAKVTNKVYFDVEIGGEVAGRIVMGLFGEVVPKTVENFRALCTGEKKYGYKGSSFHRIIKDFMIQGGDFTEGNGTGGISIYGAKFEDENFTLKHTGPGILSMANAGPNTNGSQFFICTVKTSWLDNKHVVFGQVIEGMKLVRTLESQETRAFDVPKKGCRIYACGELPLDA
T1 sequence (P34791 78-260 C248S): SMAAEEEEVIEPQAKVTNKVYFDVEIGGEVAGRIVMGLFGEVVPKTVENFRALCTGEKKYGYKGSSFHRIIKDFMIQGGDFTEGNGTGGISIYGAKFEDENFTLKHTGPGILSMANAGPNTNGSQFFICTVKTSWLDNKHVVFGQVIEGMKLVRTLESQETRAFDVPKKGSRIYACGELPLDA

Compound: CC/C=C\C[C@@H]1C(=O)C=C[C@@H]1CCCCCCCC(=O)O [12-OPDA, 12-oxophytodienoic acid]
- Kd (Cyp20-3 [1]): 26 ± 8 µM
- Kd (Cyp20-3 [2]): 35.7 ± 9 µM
- PPIase activity assay (chymotrypsin-coupled), 26 μM 12-OPDA (Cyp20-3 [3]): 12-OPDA stimulated the activity of oxidized Cyp20-3 WT and C129S to a similar extent
